In article PMC13130965, “An Integrated Approach Combining Regulatory Tests in tg(cyp19a1b:GFP) Zebrafish Embryos to Assess Toxicity, Developmental Effects, and Estrogenic Activity of Chemicals: A Case Study with Bisphenol A Substitutes” (Environmental Science & Technology, 2026):
In brackets after ≈: the same amount, converted by molar mass.

System: tg(cyp19a1b:GFP) zebrafish embryos
Test: Refined FET: developmental effects / malformations
Type: in vivo, zebrafish (Danio rerio)
Conditions: nominal
Procedure: Exposures were carried out in presaturated 24-well plates containing one embryo per well in 2 mL of test solution. The exposure was performed under semistatic conditions, with daily renewal of the test solution. The concentration ranges tested, along with a control with the same percentage of solvent alone, are recapitulated in Table S1. All exposure concentrations are reported as nominal. During the time course of the refined FET tests, embryos were observed after 8 h (coagulation), 24 h (lack of somite formation and nondetachment of the tail), and 48, 72, and 96 h of exposure (nondetection of the heartbeat). […] Moreover, hatching rate and nonlethal developmental effects (i.e., yolk deformity, growth retardation, spontaneous movement, edema, blood tail circulation, heart rate, pigmentation, head and tail/spinal malformations, and hemorrhage) were monitored daily. Tail/spinal malformations included lordosis, kyphosis, scoliosis, and reduced tail length.
This analysis considered all nonlethal developmental end points monitored in the refined FET assay (see above), except effects on hatching, pigmentation, spontaneous movement, and blood circulation. A teratogenic index (TI) was then calculated as the ratio LC50/EC50.

CC(C)(c1ccc(O)cc1)c1ccc(O)cc1 [BPA, 4-[2-(4-hydroxyphenyl)propan-2-yl] phenol]
EC50 (Danio rerio, end of 96 h exposure, read-out: EC50 malformations (cumulative sublethal end points)): 6.06 µg/mL (≈ 26.5 µM) | LOEC edema: 10 mg/L | LOEC growth retardation: 20 mg/L | LOEC heart rate disruption: 20 mg/L | LOEC hemorrhage: 10 mg/L | LOEC no spontaneous movement: 10 mg/L | LOEC no/Less pigmentation: 10 mg/L | LOEC tail/spinal malformations: 10 mg/L | LOEC deformity of yolk (at least 10% of embryos affected): 20 mg/L
